Assay results: patent publication US8846363B2, “Compositions of and methods of using sulfatases from Flavobacterium heparinum” (priority 2007, dated 2014)
pIC50: −log10 of the molar value. Entries after “also recorded” stand apart in the source; their conditions may differ.

Experiments:
[1] = molecular target: T1, Flavobacterium heparinum 6-O-sulfatase (ORF B), recombinant, NH2-terminal truncation lacking signal sequence, SEQ ID NO: 2 (Pedobacter heparinus, UniProt C6Y1N4); test: Inhibition of 6-O-sulfatase activity (sulfate, phosphate, chelators); type: biochemical
T1 construct: E. coli BL21(DE3), N-terminal 6xHis removed by thrombin
Protocol: Results are normalized to 0.0 M NaCl added (which is shown as 100%). 6-O-sulfatase (●); N-sulfamidase (◯). […] Results for 6-O-sulfatase are represented by a solid line; results for N-sulfamidase are represented by a dashed line. […] Log scale for inhibitor concentration, [I]. […] Relative activities (% desulfation) were measured over a pH range of 4-8 using three buffers: sodium acetate (●), MES (◯) and MOPS (▴).
Open bars (no divalent metals added); black bars (1 mM EDTA added); light gray bars (1 mM divalent metal); stippled gray bars (5 mM divalent metal). […] Enzyme kinetics were measured for the 6-O-sulfatase (FIG. 8C) and N-sulfamidase (FIG. 8D) as described in Materials and Methods at varying concentrations of Ca^+2 or in the presence of 1 mM EDTA. Substrate saturation plots were fitted to pseudo first-order Michaelis-Menten kinetics by non-linear regression analyses. 0.5 mM Ca^+2 (●), 1 mM Ca^+2 (◯), 5 mM Ca^+2 (▪), 1 mM EDTA (Δ).
Indirect measurement of enzyme activity was also made using a fluorimetrically-based plate assay in which the prerequisite desulfation of the appropriate glucopyranoside 1→4 methlybelliferone substrate by either the 6-O-sulfatase or N-sulfamidase was coupled to the glucosidase-mediated hydrolysis of the stereo-specific 1→4 glycosidic linkage between the pyranose ring and the adjoining fluorophore. Release of the free fluorophore (4-MU) was monitored spectroscopically as described above for the arylsulfatase assay using 4-MU sulfate. The two sulfatase assays differed in the choice of substrate in accordance to their specificity as well as the glucosidase added during the second, rate-limiting step. […] Reaction conditions were optimized to satisfy three related criteria: 1) linear readout of fluorescent signal which is directly proportional to sulfatase activity; 2) quantitative release of 4-MU by glucosidase activity under every biochemical condition examined and; 3) negligible fluorescent quenching of the free chromophore. […]

[2] = molecular target: T2, Flavobacterium heparinum N-sulfamidase (ORF C), recombinant, NH2-terminal truncation lacking signal sequence, SEQ ID NO: 4 (Pedobacter heparinus, UniProt C6Y1N3); test: Inhibition of N-sulfamidase activity (sulfate, phosphate, chelators); type: biochemical
T2 construct: E. coli BL21(DE3), N-terminal 6xHis removed by thrombin
T2 sequence (C6Y1N3 entry or part of it): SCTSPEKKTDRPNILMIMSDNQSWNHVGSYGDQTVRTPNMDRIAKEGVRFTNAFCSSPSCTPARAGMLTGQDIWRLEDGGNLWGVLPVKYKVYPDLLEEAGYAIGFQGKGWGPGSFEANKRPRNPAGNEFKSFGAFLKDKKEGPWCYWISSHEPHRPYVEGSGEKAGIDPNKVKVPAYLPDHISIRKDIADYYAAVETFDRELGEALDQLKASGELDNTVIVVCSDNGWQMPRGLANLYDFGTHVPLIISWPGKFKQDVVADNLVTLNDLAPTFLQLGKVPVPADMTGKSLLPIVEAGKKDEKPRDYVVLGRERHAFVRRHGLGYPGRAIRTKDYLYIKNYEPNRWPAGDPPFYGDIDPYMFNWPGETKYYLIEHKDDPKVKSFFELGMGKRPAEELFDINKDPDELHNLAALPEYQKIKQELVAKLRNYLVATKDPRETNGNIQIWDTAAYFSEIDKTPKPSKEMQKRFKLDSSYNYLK
Protocol: Results are normalized to 0.0 M NaCl added (which is shown as 100%). […] Relative activities (% desulfation) were measured over a pH range of 4-8 using three buffers: sodium acetate (●), MES (◯) and MOPS (▴).
Enzyme kinetics were measured for the 6-O-sulfatase (FIG. 8C) and N-sulfamidase (FIG. 8D) as described in Materials and Methods at varying concentrations of Ca^+2 or in the presence of 1 mM EDTA. Substrate saturation plots were fitted to pseudo first-order Michaelis-Menten kinetics by non-linear regression analyses.
Indirect measurement of enzyme activity was also made using a fluorimetrically-based plate assay in which the prerequisite desulfation of the appropriate glucopyranoside 1→4 methlybelliferone substrate by either the 6-O-sulfatase or N-sulfamidase was coupled to the glucosidase-mediated hydrolysis of the stereo-specific 1→4 glycosidic linkage between the pyranose ring and the adjoining fluorophore. Release of the free fluorophore (4-MU) was monitored spectroscopically as described above for the arylsulfatase assay using 4-MU sulfate. The two sulfatase assays differed in the choice of substrate in accordance to their specificity as well as the glucosidase added during the second, rate-limiting step. For the 6-O-sulfatase, the hydrolysis of the substrate 4-MU-β-D-GlcNAc,6S at the 6-OH position was coupled to β-glucosidase purified from sweet almonds (MP Biomedicals, Solon, Ohio, Catalog No. 195197). Likewise, N-sulfamidase hydrolysis of 4-MU-α-D-GlcNS at the 2-amino position was coupled to α-glucosidase (MP Biomedicals, Catalog No. 153487). […] The presumption of the first (sulfatase) activity being the rate-limiting step was established experimentally. Reaction conditions were optimized to satisfy three related criteria: 1) linear readout of fluorescent signal which is directly proportional to sulfatase activity; 2) quantitative release of 4-MU by glucosidase activity under every biochemical condition examined and; 3) negligible fluorescent quenching of the free chromophore.
Coupled N-sulfamidase assay was generally described for the 6-O-sulfatase, but with the following modifications: 4-MU-GlcNS as substrate, 50 mM sodium acetate at pH 6.0 (instead of 5.5) and 1 μM enzyme. For the second enzyme step, 5 units of α-glucosidase were added. Enzyme incubation was carried out for 22 hours at 37° C. […] All other reaction conditions were as described for the coupled 6-O-sulfatase/β-glucosidase assay.
Having identified chromogenic substrates for each recombinant sulfatase, these substrates were also used to further develop a fluorescence-based plate assay as the means to define the optimal in vitro reaction conditions for each sulfatase.

T1 sequence (C6Y1N4 entry or part of it): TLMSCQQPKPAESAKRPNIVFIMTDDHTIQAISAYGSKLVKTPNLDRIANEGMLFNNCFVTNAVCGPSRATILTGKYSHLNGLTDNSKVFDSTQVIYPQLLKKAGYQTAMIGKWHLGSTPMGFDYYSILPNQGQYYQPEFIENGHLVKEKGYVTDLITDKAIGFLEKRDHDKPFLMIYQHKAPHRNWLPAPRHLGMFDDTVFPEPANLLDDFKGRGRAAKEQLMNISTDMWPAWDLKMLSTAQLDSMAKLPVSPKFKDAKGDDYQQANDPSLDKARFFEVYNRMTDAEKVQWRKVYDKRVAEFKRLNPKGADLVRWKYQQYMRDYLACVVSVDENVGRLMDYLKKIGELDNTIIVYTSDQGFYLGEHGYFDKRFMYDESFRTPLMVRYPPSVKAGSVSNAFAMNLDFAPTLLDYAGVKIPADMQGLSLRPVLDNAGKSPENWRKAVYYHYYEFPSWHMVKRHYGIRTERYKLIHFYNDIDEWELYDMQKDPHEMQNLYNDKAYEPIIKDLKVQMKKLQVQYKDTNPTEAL

`O=C(O)CN(CCOCCOCCN(CC(=O)O)CC(=O)O)CC(=O)O` [EGTA] was tested, and the “effect on 6-O-sulfatase specific activity” value ([1]; EGTA, same conditions as N-sulfamidase (5 mM Ca^2+)) was “no appreciable effect”.

For `O=S(=O)(O)O` [sulfate], the pIC50 ([1]; normalized to 0 sulfate or phosphate added, read-out: concentration for 50% inhibition of 6-O-sulfatase activity) was ~1.70 and the “inhibition of N-sulfamidase by sulfate or phosphate” value [2] was “largely uninhibited; also recorded: not apparently inhibited”.

For phosphate, the “inhibition of N-sulfamidase by sulfate or phosphate” value [2] was “largely uninhibited; also recorded: not apparently inhibited”.

For `O=C(O)CN(CCN(CC(=O)O)CC(=O)O)CC(=O)O` [EDTA, ethylenediaminetetracetic acid], the “6-O-sulfatase activity in the presence of EDTA” value ([1]; 1 mM EDTA) was “somewhat active” and the “N-sulfamidase activity in the presence of EDTA” value ([2]; 1 mM EDTA) was “lack of activity”.
